Measured values as given in ChEMBL document CHEMBL5050826, “Compositions and methods for treating Friedreich's ataxia” (2019).
The source made the active and inactive calls. The rule behind the calls is not given here.

Assays:
Lymphocyte [1] = assay: Rescue of aconitase activity in human FRDA-patient isolated lymphocyte at 10 uM […]; assay type: functional, cell-based
Flp-In-293 [2] = assay: Induction of frataxin accumulation in human Flp-In-293 cells stably expressing frataxin at 10 uM assessed as increase in frataxin levels measured after 72 hrs by Western blot analysis; assay type: functional, cell-based
Flp-In-293 [3] = assay: Induction of frataxin accumulation in human Flp-In-293 cells stably expressing frataxin at 10 uM assessed as increase in frataxin levels measured after 24 hrs by Western blot analysis; assay type: functional, cell-based
[4] = biological target: T1, Frataxin, mitochondrial (Homo sapiens) (UniProt Q16595); assay: Inhibition of recombinant frataxin (unknown origin) precursor degradation assessed as half-saturation binding constant (L1/2) and measured by fluorescence based assay
T1 sequence (whole entry): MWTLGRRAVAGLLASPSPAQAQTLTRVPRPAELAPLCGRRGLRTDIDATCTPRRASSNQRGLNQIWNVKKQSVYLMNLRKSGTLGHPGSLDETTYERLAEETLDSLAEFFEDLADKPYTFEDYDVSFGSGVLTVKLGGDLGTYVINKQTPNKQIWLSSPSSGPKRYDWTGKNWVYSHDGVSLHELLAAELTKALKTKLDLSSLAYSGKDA

Lymphocyte [5] = assay: Induction of frataxin accumulation in human FRDA-patient isolated lymphocyte at 10 uM assessed as increase in frataxin levels measured by Western blot analysis; assay type: functional, cell-based
Flp-In-293 [6] = assay: Induction of frataxin accumulation in human Flp-In-293 cells stably expressing frataxin K147R mutant at 10 uM assessed as increase in frataxin levels measured after 24 hrs by Western blot analysis; assay type: functional, cell-based
[7] = biological target: T1, Frataxin, mitochondrial (Homo sapiens); assay: Inhibition of frataxin ubiquitination in human HEK293 cells transiently co-transfected with HA-Ub and frataxin at 10 uM and measured after 48 hrs by Western blot analysis; assay type: cell-based
Lymphocyte [8] = assay: Induction of frataxin accumulation in human FRDA-patient isolated lymphocyte at 1 uM assessed as increase in frataxin levels measured after 4 days by Western blot analysis; assay type: functional, cell-based; conditions: time 4.0 day

Row | SMILES | Activity (Lymphocyte [1]) | Activity (Flp-In-293 [2]) | Activity (Flp-In-293 [3]) | K1/2 [4] [µM] | Activity (Lymphocyte [5]) | Activity (Flp-In-293 [6]) | inhibition [7] | Activity (Lymphocyte [8])
1 | C/C(=N\NC(=O)c1ccccc1)c1ccc2c(c1)Nc1ccccc1S2 | Active | Active | Active | 2.3 | Active | inactive | – | –
2 | C/C(=N\NC(=O)c1cc2ccccc2cc1O)c1ccc2c(c1)Nc1ccccc1S2 | – | – | Active | – | – | inactive | Active | –
3 | C/C(=N\NC(=O)c1ccc(C)cc1C)c1ccc2c(c1)Nc1ccccc1S2 | – | Active | Active | 2.9 | Active | inactive | Active | –
4 | COc1ccccc1C(=O)N/N=C(\C)c1ccc2c(c1)Nc1ccccc1S2 | – | – | – | – | – | – | – | Active
